The values that follow are results of earlier work, collected in US6310089A, “Composition for the administration of a D1-agonists” (West Pharmaceutical Services Drug Delivery & Clinical …, priority 1998, dated 2001).

Data set [1] deals with dopamine D1 receptors.
Data set [2] has as its system Parkinson's disease. The conditions noted are these: D1 partial agonists.

Consider `CN1Cc2ccccc2C2c3cccc4[nH]cc(c34)CC21` (single isomer, unassigned) [CY208.243], for which the “agonism at dopamine D1 receptors” value in data set [1] is listed as “partial agonists”. Further, the evaluation outcome in data set [2] is “inconclusive results”.
For the molecule `Oc1cc2c(cc1O)C(c1ccccc1)CNCC2` (stereo not shown) [SKF 38393], the “agonism at dopamine D1 receptors” value in data set [1] is given as “partial agonists”. Further, the evaluation outcome in data set [2] is “inconclusive results”.
